Measurements from ChEMBL document CHEMBL4507280 (2021).

Legend:
[1] = target: Calcium/calmodulin-dependent protein kinase type II subunit delta (Homo sapiens) (UniProt Q13557); settings: Compound concentration 1000.0 nM
[2] = target: Sodium-dependent serotonin transporter (Homo sapiens) (UniProt P31645); settings: Compound concentration 10.0 uM
[3] = target: Serine/threonine-protein kinase TAO1 (Homo sapiens) (UniProt Q7L7X3); settings: Compound concentration 1000.0 nM
[4] = target: Tyrosine-protein kinase Fes/Fps (Homo sapiens) (UniProt P07332); settings: Compound concentration 1000.0 nM
[5] = target: Serine/threonine-protein kinase MAK (Homo sapiens) (UniProt P20794); settings: Compound concentration 1000.0 nM
[6] = target: Serine/threonine-protein kinase TAO2 (Homo sapiens) (UniProt Q9UL54); settings: Compound concentration 1000.0 nM
[7] = target: Myotonin-protein kinase (Homo sapiens) (UniProt Q09013); settings: Compound concentration 1000.0 nM
[8] = target: Phosphatidylinositol 4-phosphate 5-kinase type-1 alpha (Homo sapiens) (UniProt Q99755); settings: Compound concentration 1000.0 nM
Sequence of Phosphatidylinositol 4-phosphate 5-kinase type-1 alpha (Homo sapiens) (Q99755 whole entry): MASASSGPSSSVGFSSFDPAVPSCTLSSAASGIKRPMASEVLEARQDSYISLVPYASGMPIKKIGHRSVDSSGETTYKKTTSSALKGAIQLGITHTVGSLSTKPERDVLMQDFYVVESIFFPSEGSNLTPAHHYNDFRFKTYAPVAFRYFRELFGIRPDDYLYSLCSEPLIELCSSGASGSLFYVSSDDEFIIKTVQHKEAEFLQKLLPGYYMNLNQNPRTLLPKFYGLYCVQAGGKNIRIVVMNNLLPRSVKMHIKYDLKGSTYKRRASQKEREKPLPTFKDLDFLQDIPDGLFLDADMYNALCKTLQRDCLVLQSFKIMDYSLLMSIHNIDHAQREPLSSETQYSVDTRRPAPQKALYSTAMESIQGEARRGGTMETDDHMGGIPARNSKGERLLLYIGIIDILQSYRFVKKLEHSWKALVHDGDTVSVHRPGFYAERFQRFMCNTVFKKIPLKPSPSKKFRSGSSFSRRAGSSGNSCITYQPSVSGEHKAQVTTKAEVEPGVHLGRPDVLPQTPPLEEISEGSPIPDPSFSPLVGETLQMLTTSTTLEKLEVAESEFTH

[9] = target: Serine/threonine-protein kinase SIK3 (Homo sapiens) (UniProt Q9Y2K2); settings: Compound concentration 1000.0 nM
Sequence of Serine/threonine-protein kinase SIK3 (Homo sapiens) (Q9Y2K2 whole entry, looked up): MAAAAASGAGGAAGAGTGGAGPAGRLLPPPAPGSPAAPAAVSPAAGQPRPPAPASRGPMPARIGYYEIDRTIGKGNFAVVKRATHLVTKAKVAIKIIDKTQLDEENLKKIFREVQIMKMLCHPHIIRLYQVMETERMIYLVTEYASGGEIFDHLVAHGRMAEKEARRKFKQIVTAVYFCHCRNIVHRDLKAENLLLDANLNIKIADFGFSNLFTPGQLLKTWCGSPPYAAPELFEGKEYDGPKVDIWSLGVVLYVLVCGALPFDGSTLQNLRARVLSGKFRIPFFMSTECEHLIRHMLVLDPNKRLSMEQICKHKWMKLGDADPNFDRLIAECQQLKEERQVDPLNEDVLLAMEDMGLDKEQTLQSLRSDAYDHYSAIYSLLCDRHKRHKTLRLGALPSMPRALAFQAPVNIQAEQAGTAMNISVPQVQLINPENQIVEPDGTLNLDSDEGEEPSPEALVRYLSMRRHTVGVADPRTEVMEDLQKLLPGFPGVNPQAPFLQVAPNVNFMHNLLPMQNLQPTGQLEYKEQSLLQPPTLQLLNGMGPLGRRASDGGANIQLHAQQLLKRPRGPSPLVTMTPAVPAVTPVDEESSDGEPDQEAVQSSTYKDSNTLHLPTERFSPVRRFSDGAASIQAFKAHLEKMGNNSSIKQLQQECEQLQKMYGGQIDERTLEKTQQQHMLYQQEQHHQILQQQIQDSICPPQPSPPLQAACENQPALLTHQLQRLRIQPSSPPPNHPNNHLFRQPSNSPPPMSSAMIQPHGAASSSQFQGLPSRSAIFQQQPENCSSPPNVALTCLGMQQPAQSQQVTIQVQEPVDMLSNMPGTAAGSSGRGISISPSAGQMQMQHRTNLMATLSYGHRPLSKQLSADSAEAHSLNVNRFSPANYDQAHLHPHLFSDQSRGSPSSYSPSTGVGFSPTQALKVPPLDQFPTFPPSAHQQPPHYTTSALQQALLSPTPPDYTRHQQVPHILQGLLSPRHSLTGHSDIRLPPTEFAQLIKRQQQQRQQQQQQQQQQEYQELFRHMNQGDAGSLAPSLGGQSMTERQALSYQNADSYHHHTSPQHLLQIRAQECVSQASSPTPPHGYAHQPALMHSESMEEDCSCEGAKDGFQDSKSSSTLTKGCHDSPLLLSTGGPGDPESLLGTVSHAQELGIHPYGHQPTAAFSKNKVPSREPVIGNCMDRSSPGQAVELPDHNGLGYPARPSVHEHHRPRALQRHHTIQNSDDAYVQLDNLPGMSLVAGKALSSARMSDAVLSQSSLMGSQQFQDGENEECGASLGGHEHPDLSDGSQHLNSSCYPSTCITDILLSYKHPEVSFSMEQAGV

[10] = target: 5-hydroxytryptamine receptor 1D (Homo sapiens) (UniProt P28221); settings: Compound concentration 10.0 uM
Sequence of 5-hydroxytryptamine receptor 1D (Homo sapiens) (P28221 whole entry, canonical isoform): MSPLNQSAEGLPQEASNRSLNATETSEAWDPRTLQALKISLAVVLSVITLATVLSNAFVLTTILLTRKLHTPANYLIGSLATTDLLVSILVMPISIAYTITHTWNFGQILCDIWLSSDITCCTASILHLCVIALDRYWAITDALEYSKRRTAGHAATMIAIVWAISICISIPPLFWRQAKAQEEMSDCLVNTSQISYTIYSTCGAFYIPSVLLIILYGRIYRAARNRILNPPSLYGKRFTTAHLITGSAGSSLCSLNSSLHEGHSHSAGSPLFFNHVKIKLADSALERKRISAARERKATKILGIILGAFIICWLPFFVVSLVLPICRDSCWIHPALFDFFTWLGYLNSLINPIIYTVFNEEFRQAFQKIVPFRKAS

[11] = system: Phosphatidylinositol 4,5-bisphosphate 3-kinase catalytic subunit alpha isoform (Homo sapiens), P42336 [C420R]; settings: Compound concentration 1000.0 nM
[12] = target: Tyrosine-protein kinase ZAP-70 (Homo sapiens) (UniProt P43403); settings: Compound concentration 1000.0 nM
[13] = target: Mitogen-activated protein kinase kinase kinase 20 (Homo sapiens) (UniProt Q9NYL2); settings: Compound concentration 1000.0 nM
[14] = target: TGF-beta receptor type-1 (Homo sapiens) (UniProt P36897); settings: Compound concentration 1000.0 nM
[15] = target: Cyclin-dependent kinase 2 homolog (Plasmodium falciparum (isolate 3D7)) (UniProt P61075); settings: Compound concentration 1000.0 nM
[16] = system: Phosphatidylinositol 4,5-bisphosphate 3-kinase catalytic subunit alpha isoform (Homo sapiens), P42336 [I800L]; settings: Compound concentration 1000.0 nM
Sequence of Phosphatidylinositol 4,5-bisphosphate 3-kinase catalytic subunit alpha isoform (Homo sapiens), P42336 [I800L] (P42336 whole entry I800L, canonical isoform): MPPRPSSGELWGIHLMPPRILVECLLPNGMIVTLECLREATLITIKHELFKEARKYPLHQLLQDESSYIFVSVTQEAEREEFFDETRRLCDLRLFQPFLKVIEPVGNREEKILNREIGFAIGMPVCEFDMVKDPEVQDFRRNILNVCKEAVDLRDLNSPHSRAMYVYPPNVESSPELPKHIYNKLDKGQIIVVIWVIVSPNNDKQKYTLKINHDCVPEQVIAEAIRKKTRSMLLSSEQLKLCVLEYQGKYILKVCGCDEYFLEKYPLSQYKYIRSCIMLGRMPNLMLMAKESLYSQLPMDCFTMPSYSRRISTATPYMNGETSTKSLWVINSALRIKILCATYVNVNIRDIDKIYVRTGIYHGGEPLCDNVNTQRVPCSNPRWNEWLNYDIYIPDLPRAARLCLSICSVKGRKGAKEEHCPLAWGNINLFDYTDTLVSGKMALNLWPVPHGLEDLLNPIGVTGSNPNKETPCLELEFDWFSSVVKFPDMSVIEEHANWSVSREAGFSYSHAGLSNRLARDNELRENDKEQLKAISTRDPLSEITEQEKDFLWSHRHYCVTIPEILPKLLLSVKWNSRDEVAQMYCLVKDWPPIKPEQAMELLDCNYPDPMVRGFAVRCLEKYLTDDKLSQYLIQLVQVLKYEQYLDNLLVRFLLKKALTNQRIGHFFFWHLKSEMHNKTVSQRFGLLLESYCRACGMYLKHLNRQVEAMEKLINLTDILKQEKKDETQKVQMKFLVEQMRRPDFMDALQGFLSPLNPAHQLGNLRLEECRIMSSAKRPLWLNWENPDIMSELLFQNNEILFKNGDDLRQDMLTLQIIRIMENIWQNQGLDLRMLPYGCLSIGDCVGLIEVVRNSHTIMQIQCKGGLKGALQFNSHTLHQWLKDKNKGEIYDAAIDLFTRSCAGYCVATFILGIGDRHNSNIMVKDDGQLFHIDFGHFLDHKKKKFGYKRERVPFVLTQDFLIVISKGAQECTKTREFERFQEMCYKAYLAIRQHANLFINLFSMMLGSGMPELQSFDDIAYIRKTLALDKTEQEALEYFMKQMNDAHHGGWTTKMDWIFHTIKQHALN

[17] = target: Cyclin-dependent kinase 8 (Homo sapiens) (UniProt P49336); settings: Compound concentration 1000.0 nM
[18] = target: Ephrin type-B receptor 6 (Homo sapiens) (UniProt O15197); settings: Compound concentration 1000.0 nM
[19] = target: RAC-gamma serine/threonine-protein kinase (Homo sapiens) (UniProt Q9Y243); settings: Compound concentration 1000.0 nM
[20] = target: Protein kinase C eta type (Homo sapiens) (UniProt P24723); settings: Compound concentration 1000.0 nM
[21] = target: Mitogen-activated protein kinase 4 (Homo sapiens) (UniProt P31152); settings: Compound concentration 1000.0 nM
[22] = target: Mitogen-activated protein kinase 8 (Homo sapiens) (UniProt P45983); settings: Compound concentration 1000.0 nM
[23] = target: Serine/threonine-protein kinase Nek9 (Homo sapiens) (UniProt Q8TD19); settings: Compound concentration 1000.0 nM
[24] = target: Mitogen-activated protein kinase kinase kinase 12 (Homo sapiens) (UniProt Q12852); settings: Compound concentration 1000.0 nM
[25] = target: Epidermal growth factor receptor (Homo sapiens) (UniProt P00533); settings: Compound concentration 1000.0 nM
[26] = target: Tyrosine-protein kinase SYK (Homo sapiens) (UniProt P43405); settings: Compound concentration 1000.0 nM
[27] = target: Serine/threonine-protein kinase Chk2 (Homo sapiens) (UniProt O96017); settings: Compound concentration 1000.0 nM
Sequence of Serine/threonine-protein kinase Chk2 (Homo sapiens) (O96017 whole entry): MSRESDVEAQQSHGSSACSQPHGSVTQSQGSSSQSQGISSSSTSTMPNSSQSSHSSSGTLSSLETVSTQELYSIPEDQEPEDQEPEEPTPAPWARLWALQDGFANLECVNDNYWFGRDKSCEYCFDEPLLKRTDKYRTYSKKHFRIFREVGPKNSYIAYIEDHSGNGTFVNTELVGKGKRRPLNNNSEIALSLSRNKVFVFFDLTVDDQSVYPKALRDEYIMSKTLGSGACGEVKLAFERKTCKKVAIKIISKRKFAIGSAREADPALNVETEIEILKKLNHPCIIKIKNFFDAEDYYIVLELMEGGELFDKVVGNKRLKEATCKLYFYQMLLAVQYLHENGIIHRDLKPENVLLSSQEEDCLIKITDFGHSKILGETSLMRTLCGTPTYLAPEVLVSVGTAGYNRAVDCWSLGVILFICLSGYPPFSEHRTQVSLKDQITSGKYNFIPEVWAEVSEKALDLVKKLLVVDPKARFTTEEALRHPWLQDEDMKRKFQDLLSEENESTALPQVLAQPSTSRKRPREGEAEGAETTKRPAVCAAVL

[28] = target: Glycogen synthase kinase-3 alpha (Homo sapiens) (UniProt P49840); settings: Compound concentration 1000.0 nM
[29] = target: Serine/threonine-protein kinase MARK1 (Homo sapiens) (UniProt Q9P0L2); settings: Compound concentration 1000.0 nM
[30] = target: cGMP-dependent protein kinase 1 (Homo sapiens) (UniProt Q13976); settings: Compound concentration 1000.0 nM
[31] = target: Testis-specific serine/threonine-protein kinase 3 (Homo sapiens) (UniProt Q96PN8); settings: Compound concentration 1000.0 nM
[32] = target: Alpha-2B adrenergic receptor (Homo sapiens) (UniProt P18089); settings: Compound concentration 10.0 uM
[33] = target: Tyrosine-protein kinase CSK (Homo sapiens) (UniProt P41240); settings: Compound concentration 1000.0 nM
[34] = target: Cyclin-dependent kinase 13 (Homo sapiens) (UniProt Q14004); settings: Compound concentration 1000.0 nM
[35] = target: Protein kinase C iota type (Homo sapiens) (UniProt P41743); settings: Compound concentration 1000.0 nM
Sequence of Protein kinase C iota type (Homo sapiens) (P41743 whole entry): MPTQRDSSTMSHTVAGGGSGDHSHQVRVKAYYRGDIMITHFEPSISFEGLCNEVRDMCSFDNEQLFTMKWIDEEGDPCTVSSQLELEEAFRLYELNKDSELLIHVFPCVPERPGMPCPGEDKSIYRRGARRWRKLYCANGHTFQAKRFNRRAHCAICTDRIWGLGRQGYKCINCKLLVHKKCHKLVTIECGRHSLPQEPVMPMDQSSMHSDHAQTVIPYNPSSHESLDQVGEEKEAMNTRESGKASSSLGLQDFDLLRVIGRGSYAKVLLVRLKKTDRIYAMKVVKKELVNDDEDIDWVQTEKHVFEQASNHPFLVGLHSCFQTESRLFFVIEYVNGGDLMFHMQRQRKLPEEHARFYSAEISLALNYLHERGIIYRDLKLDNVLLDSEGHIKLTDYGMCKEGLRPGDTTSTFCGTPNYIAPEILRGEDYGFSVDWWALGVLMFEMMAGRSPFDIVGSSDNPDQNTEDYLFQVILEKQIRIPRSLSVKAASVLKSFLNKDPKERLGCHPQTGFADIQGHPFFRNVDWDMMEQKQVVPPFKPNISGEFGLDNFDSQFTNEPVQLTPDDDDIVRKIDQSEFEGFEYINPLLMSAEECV

[36] = target: Death-associated protein kinase 2 (Homo sapiens) (UniProt Q9UIK4); settings: Compound concentration 1000.0 nM
[37] = target: RAC-beta serine/threonine-protein kinase (Homo sapiens) (UniProt P31751); settings: Compound concentration 1000.0 nM
[38] = target: Mitogen-activated protein kinase kinase kinase 2 (Homo sapiens) (UniProt Q9Y2U5); settings: Compound concentration 1000.0 nM
[39] = target: Mast/stem cell growth factor receptor Kit (Homo sapiens) (UniProt P10721); settings: Compound concentration 1000.0 nM
[40] = target: Fibroblast growth factor receptor 2 (Homo sapiens) (UniProt P21802); settings: Compound concentration 1000.0 nM
[41] = system: Mast/stem cell growth factor receptor Kit (Homo sapiens), P10721 [V559D]; settings: Compound concentration 1000.0 nM
[42] = target: Leucine-rich repeat serine/threonine-protein kinase 2 (Homo sapiens) (UniProt Q5S007); settings: Compound concentration 1000.0 nM
[43] = target: Mitogen-activated protein kinase kinase kinase 3 (Homo sapiens) (UniProt Q99759); settings: Compound concentration 1000.0 nM
[44] = target: Dual specificity testis-specific protein kinase 1 (Homo sapiens) (UniProt Q15569); settings: Compound concentration 1000.0 nM
[45] = target: Mitogen-activated protein kinase kinase kinase 9 (Homo sapiens) (UniProt P80192); settings: Compound concentration 1000.0 nM

Sequence of Calcium/calmodulin-dependent protein kinase type II subunit delta (Homo sapiens) (Q13557 whole entry): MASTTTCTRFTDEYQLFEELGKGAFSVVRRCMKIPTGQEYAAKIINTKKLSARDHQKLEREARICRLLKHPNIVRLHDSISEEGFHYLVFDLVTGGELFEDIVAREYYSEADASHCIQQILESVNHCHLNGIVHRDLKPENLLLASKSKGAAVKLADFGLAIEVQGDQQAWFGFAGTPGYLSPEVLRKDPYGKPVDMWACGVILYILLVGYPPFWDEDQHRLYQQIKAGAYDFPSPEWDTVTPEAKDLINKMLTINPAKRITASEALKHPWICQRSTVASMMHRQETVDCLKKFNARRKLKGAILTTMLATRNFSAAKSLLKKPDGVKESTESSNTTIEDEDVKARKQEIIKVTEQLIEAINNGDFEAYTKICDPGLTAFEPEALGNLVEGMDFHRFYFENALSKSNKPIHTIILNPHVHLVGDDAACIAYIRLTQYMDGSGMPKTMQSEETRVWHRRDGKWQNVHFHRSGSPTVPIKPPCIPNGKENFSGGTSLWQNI

CCC(=O)N[C@@H]1CC[C@H](C(=O)N(C)c2ccc(-c3nc4ccccc4o3)cc2)C1 [BI 99990]
inactive: residual activity [1] 100% | inhibition [2] 20.2% | residual activity [3] 97% | residual activity [4] 96% | residual activity [5] 100% | residual activity [6] 89% | residual activity [7] 100% | residual activity [8] 86% | residual activity [9] 100% | inhibition [10] -8.27% | residual activity [11] 70% | residual activity [12] 100% | residual activity [13] 78% | residual activity [14] 95% | residual activity [15] 100% | residual activity [16] 100% | residual activity [17] 100% | residual activity [18] 100% | residual activity [19] 100% | residual activity [20] 95% | residual activity [21] 100% | residual activity [22] 53% | residual activity [23] 100% | residual activity [24] 100% | residual activity [25] 100% | residual activity [26] 100% | residual activity [27] 100% | residual activity [28] 84% | residual activity [29] 86% | residual activity [30] 100% | residual activity [31] 97% | inhibition [32] 7.05% | residual activity [33] 100% | residual activity [34] 100% | residual activity [35] 84% | residual activity [36] 100% | residual activity [37] 72% | residual activity [38] 100% | residual activity [39] 93% | residual activity [40] 86% | residual activity [41] 100% | residual activity [42] 100% | residual activity [43] 96% | residual activity [44] 75% | residual activity [45] 100%

CCC(=O)N[C@H]1CC[C@@H](C(=O)N(C)c2ccc(-c3nc4ccccc4o3)cc2)C1 [BI 99179]
inactive: residual activity [1] 91% | inhibition [2] 32.8% | residual activity [3] 100% | residual activity [4] 73% | residual activity [5] 85% | residual activity [6] 76% | residual activity [7] 100% | residual activity [8] 100% | residual activity [9] 84% | inhibition [10] 6.85% | residual activity [11] 92% | residual activity [12] 82% | residual activity [13] 89% | residual activity [14] 100% | residual activity [15] 80% | residual activity [16] 63% | residual activity [17] 100% | residual activity [18] 100% | residual activity [19] 100% | residual activity [20] 96% | residual activity [21] 100% | residual activity [22] 58% | residual activity [23] 99% | residual activity [24] 100% | residual activity [25] 100% | residual activity [26] 100% | residual activity [27] 100% | residual activity [28] 100% | residual activity [29] 100% | residual activity [30] 100% | residual activity [31] 100% | inhibition [32] 5.31% | residual activity [33] 100% | residual activity [34] 100% | residual activity [35] 92% | residual activity [36] 100% | residual activity [37] 89% | residual activity [38] 87% | residual activity [39] 84% | residual activity [40] 91% | residual activity [41] 94% | residual activity [42] 71% | residual activity [43] 89% | residual activity [44] 100% | residual activity [45] 100%
